Measured values reported in patent US12492173B2, “Herbicidal substituted N-tetrazolyl aryl carboxamides” (Bayer Aktiengesellschaft, priority 2019, dated 2025).

Key:
Assay type in all cases: in vivo
Abutilon theophrasti = assay: Pre-emergence herbicidal action, ABUTH; details: dosage 320 g/ha, scored visually after 3 weeks vs untreated controls (100% = plants have died)
In short: (§1)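 Visual scoring after 3 weeks in the greenhouse, relative to untreated pots, gave percent activity, where 100% means dead plants and 0% equals controls. Treatment was a pre-emergence soil-surface spray of WP or EC formulations in water (600 to 800 l/ha, 0.2% wetting agent) over seeds covered in sandy loam.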

Echinochloa crus-galli = assay: Post-emergence herbicidal action, ECHCG; set-up: key: % herbicidal action vs untreated; 100 = plants died, 0 = like control
In short: (§2)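 WP or EC formulations, diluted in water at 600 to 800 l/ha with 0.2% wetting agent, are sprayed onto green parts of one-leaf-stage plants grown in sandy loam. Visual assessment of percent damage relative to untreated controls follows after approximately 3 weeks in the greenhouse.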

Setaria viridis = assay: Pre-emergence herbicidal action, SETVI; set-up: key to Herbicidal action against SETVI: % activity: 100 = plants have died, 0 = like control plants; details: for herbicidal activity SETVI: dosage 320 g/ha, scored visually after 3 weeks vs untreated controls (100% = plants have died)
In short: as §1

Amaranthus retroflexus = assay: Pre-emergence herbicidal action, AMARE; details: dosage 320 g/ha; for herbicidal activity AMARE: scored visually after 3 weeks vs untreated controls (100% = plants have died)
In short: as §1

Matricaria inodora = assay: Post-emergence herbicidal action, MATIN; set-up: key: % herbicidal action vs untreated; 100 = plants died, 0 = like control
In short: as §2

Stellaria media = assay: Pre-emergence herbicidal action, STEME; set-up: key to Herbicidal action against STEME: % activity: 100 = plants have died, 0 = like control plants; details: for herbicidal activity STEME: scored visually after 3 weeks vs untreated controls (100% = plants have died)
In short: as §1

[1] = comparative experiment, 20 g of a.i./ha

Row | Compound | herbicidal activity ABUTH (Abutilon theophrasti) | herbicidal action ECHCG (Echinochloa crus-galli; post-emergence, dosage 80 g/ha) | herbicidal activity SETVI (Setaria viridis) | herbicidal activity AMARE (Amaranthus retroflexus) | Herbicidal action against MATIN (Matricaria inodora; comparative experiment, post-emergence, 5 g of a.i./ha) | herbicidal action MATIN (Matricaria inodora; post-emergence, dosage 80 g/ha) | herbicidal activity STEME (Stellaria media; dosage 320 g/ha) | herbicidal action ECHCG (Echinochloa crus-galli; Dosage 80 g/ha) | herbicidal action MATIN (Matricaria inodora; Dosage 80 g/ha) | Herbicidal action against SETVI (Setaria viridis; [1]) | Herbicidal action against STEME (Stellaria media; [1]) | herbicidal action AMARE (Amaranthus retroflexus) | herbicidal action STEME (Stellaria media; dosage 320 g/ha)
1 | Cn1nnnc1NC(=O)c1ccc(C(F)(F)F)c(CS(C)(=O)=O)c1Cl [Example 1-298] | 100% | 90% | 100% | 100% | 100 | 100% | 100% |  |  |  |  |  | 
2 | CCS(=O)(=O)Cc1c(C(F)(F)F)ccc(C(=O)Nc2nnnn2C)c1Cl [Example 1-301] | 100% |  | 100% | 100% |  |  | 90% | 90 | 90 |  |  |  | 
3 | C=CCSCc1c(C(F)(F)F)ccc(C(=O)Nc2nnnn2C)c1Cl [Example 1-308] | 100% | 100% | 100% | 100% |  | 100% | 100% |  |  |  |  |  | 
4 | CSCc1c(C(F)(F)F)ccc(C(=O)Nc2nnnn2C)c1Br [Example 1-380] | 100% | 90% | 100% | 100% |  | 90% | 90% |  |  |  |  |  | 
5 | Cn1nnnc1NC(=O)c1ccc(C(F)(F)F)c(C[S+](C)[O-])c1Br (stereo not drawn) [Example 1-381] | 100% | 90% | 100% | 100% |  | 90% | 90% |  |  | 80 | 90 |  | 
6 | Cn1nnnc1NC(=O)c1ccc(C(F)(F)F)c(CS(C)(=O)=O)c1Br [Example 1-382, 2-bromo-3-[(methylsulfonyl)methyl]-N-(1-methyl-1H-tetrazol-5-yl)-4-(trifluoromethyl)benzamide] | 100% |  | 100% | 100% |  |  | 90% | 90 | 100 |  |  |  | 
7 | Cn1nnnc1NC(=O)c1ccc(Cl)c(CS(C)(=O)=O)c1Cl [Example 1-561] | 100% |  | 100% | 100% |  |  | 90% | 100 | 100 |  |  |  | 
8 | CCn1nnnc1NC(=O)c1ccc(S(C)(=O)=O)c(CS(C)(=O)=O)c1C [Example 2-39] |  |  |  |  |  |  |  | 90 | 80 |  |  | 100% | 100%
9 | CCn1nnnc1NC(=O)c1ccc(C(F)F)c(CSC)c1C [Example 2-107] | 100% |  | 100% | 100% |  |  | 90% | 90 | 90 |  |  |  | 
10 | CCn1nnnc1NC(=O)c1ccc(C(F)(F)F)c(C[S+](C)[O-])c1OC (stereo not drawn) [Example 2-135] | 100% |  | 100% | 100% |  |  | 90% | 100 | 100 |  |  |  | 
11 | CCn1nnnc1NC(=O)c1ccc(C(F)(F)F)c(CS(C)(=O)=O)c1OC [Example 2-136] | 100% |  | 80% | 100% |  |  | 100% | 100 | 100 |  |  |  | 
12 | CCn1nnnc1NC(=O)c1ccc(C)c(CSC)c1Cl [Example 2-287] |  |  | 90% | 100% |  |  | 80% | 100 | 100 |  |  |  | 
13 | CCCn1nnnc1NC(=O)c1ccc(C(F)(F)F)c(CS(C)(=O)=O)c1OC [Example 3-136] | 100% |  | 100% | 100% |  |  | 100% | 100 |  |  |  |  | 
14 | CCCn1nnnc1NC(=O)c1ccc(C(F)F)c(C[S+]([O-])CC)c1Cl (stereo not drawn) [Example 3-324] | 100% |  | 100% | 100% |  |  | 100% | 100 |  |  |  |  | 
15 | CCCn1nnnc1NC(=O)c1ccc(C(F)(F)F)c(CSC)c1Br [Example 3-380] | 100% |  | 100% | 100% |  |  |  | 90 | 100 |  |  |  | 
